This is an account of results in ChEMBL document CHEMBL1201862, “PubChem BioAssay data set” (2004).

Among the test systems are NCI-H226; SN12C; OVCAR-4; UO-31; MOLT-4; CCRF-CEM; UACC-62; SNB-75; K562; CAKI-1; NCI-H23; HCT-116; A549; HCT-15; Malme-3M; TK-10; NCI-H522; SK-OV-3; RXF 393; T47D.
What all share (test): inhibition of tumour cell growth, NCI panel, 48 h

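Method: 48-hour compound exposure of cells in 96-well plates, five concentrations, linear interpolation of endpoints. GI50 marks 50% less growth.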 Activity calls are given as the source filed them. Cut-off read from the data, not from the text of the source: active = GI50 up to about 1.1 µM and inactive = higher.

For the compound `c1coc(CNc2[nH]cnc3nncc2-3)c1`, the GI50 is > 100 µM (inactive) with NCI-H226; > 100 µM (inactive) in the test with SN12C; > 100 µM (inactive) in the test with OVCAR-4; 70.3 µM (inactive) with UO-31; > 100 µM (inactive) with MOLT-4; > 100 µM (inactive) with CCRF-CEM. Further, the GI50 in the test on UACC-62 is > 100 µM (inactive); with SNB-75, 38.5 µM (inactive); with K562 it was 57.8 µM (inactive); in the test with CAKI-1, > 100 µM (inactive); in the test with NCI-H23 it was 79.6 µM (inactive); in the test with HCT-116 it was > 100 µM (inactive). Besides, the GI50 was > 100 µM (inactive) in the test on A549; over 100 µM with HCT-15; > 100 µM (inactive) in the test with Malme-3M; > 100 µM (inactive) with TK-10; > 100 µM (inactive) with NCI-H522; > 100 µM (inactive) in the test with SK-OV-3. In the test on RXF 393, the GI50 was > 100 µM (inactive).

As for `CC(=O)OCC1=CC2OC(=O)C3=COC(OC4OC(CO)C(O)C(O)C4O)C1C32` (stereo not drawn), the GI50 in the test with NCI-H226, with SN12C, in the test with OVCAR-4, in the test with UO-31, in the test on CCRF-CEM and in the test with UACC-62 was > 100 µM (inactive) throughout. Also, the GI50 with T47D, with SNB-75, in the test with CAKI-1, in the test on NCI-H23, with HCT-116 and with A549 was > 100 µM (inactive) throughout. Further, the GI50 is over 100 µM with HCT-15, > 100 µM (inactive) in the test with TK-10, > 100 µM (inactive) with NCI-H522 and > 100 µM (inactive) with SK-OV-3.

With `CCCCCCCCCCCCCCCCOC[C@H](COC(c1ccccc1)(c1ccccc1)c1ccccc1)O[PH](=S)OC` (stereo partly drawn), the GI50 in the test with NCI-H226, in the test with SN12C, in the test on UO-31, with MOLT-4, with CCRF-CEM and with UACC-62 was > 100 µM (inactive) throughout. For the same compound, the GI50 with T47D, in the test on SNB-75, with K562, in the test on CAKI-1, in the test on NCI-H23 and in the test with HCT-116 was > 100 µM (inactive) each time. Besides, the GI50 was > 100 µM (inactive) in the test with A549; over 100 µM in the test on HCT-15; > 100 µM (inactive) in the test on TK-10; > 100 µM (inactive) with NCI-H522; > 100 µM (inactive) with SK-OV-3; > 100 µM (inactive) in the test on RXF 393.

As to `CCOc1ccc(N/C(=C(/C(Cl)=C(/Cl)NCCN)[N+](=O)[O-])n2nnc3ccccc32)cc1`, the GI50 in the test on NCI-H226 is 86.1 µM (inactive); in the test on SN12C, 35.6 µM (inactive); in the test on OVCAR-4, 30.6 µM (inactive); with UO-31 it was 37.9 µM (inactive); with MOLT-4, 16.5 µM (inactive); with CCRF-CEM, 22.6 µM (inactive). The GI50 in the test with UACC-62 is 43.5 µM (inactive); in the test on T47D, 32.3 µM (inactive); with SNB-75, 46.8 µM (inactive); in the test with K562, 26.8 µM (inactive); in the test on CAKI-1 it was 17.2 µM (inactive); with NCI-H23 it was 32.5 µM (inactive). In addition, the GI50 in the test with HCT-116 was 24.3 µM (inactive); in the test on A549, > 100 µM (inactive); in the test with HCT-15, 17.9 µM; in the test with Malme-3M it was 14.5 µM (inactive); with SK-OV-3, > 100 µM (inactive).

Regarding `C#CCN(N=O)C(=O)NCCCC(NC(C)=O)C(=O)NCc1ccccc1` (stereo not drawn), the GI50 is > 100 µM (inactive) in the test on NCI-H226; > 100 µM (inactive) in the test with SN12C; > 100 µM (inactive) in the test with OVCAR-4; > 100 µM (inactive) in the test on UO-31; 15.3 µM (inactive) in the test on MOLT-4; 11.3 µM (inactive) in the test with CCRF-CEM. Besides, the GI50 with UACC-62 was 81.7 µM (inactive); with SNB-75 it was 96.8 µM (inactive); in the test with K562, 43.3 µM (inactive); with CAKI-1, 54.6 µM (inactive); in the test with NCI-H23, > 100 µM (inactive); in the test with HCT-116, 73.6 µM (inactive). Moreover, the GI50 is > 100 µM (inactive) in the test on A549; over 100 µM with HCT-15; > 100 µM (inactive) in the test with Malme-3M; > 100 µM (inactive) in the test with TK-10; 29.9 µM (inactive) with NCI-H522; > 100 µM (inactive) with SK-OV-3. Moreover, in the test on RXF 393, the GI50 was > 100 µM (inactive).

Consider `COc1cc(/C=C2\N=C(c3ccccc3)N(c3nc4c(Cl)cc(Cl)cc4s3)C2=O)ccc1O`, for which the GI50 in the test with SN12C was 22.2 µM (inactive); with OVCAR-4, 29.2 µM (inactive); with UO-31, 27 µM (inactive); in the test on MOLT-4, 0.059 µM (active); with CCRF-CEM it was 13.6 µM (inactive); in the test on UACC-62, 25.8 µM (inactive). Besides, the GI50 was 24.8 µM (inactive) in the test with T47D; 39.3 µM (inactive) in the test with SNB-75; 24.8 µM (inactive) in the test with K562; 46.3 µM (inactive) in the test on CAKI-1; 24 µM (inactive) in the test on HCT-116; 30.8 µM (inactive) with A549. Besides, the GI50 is 31.3 µM in the test on HCT-15, 39.9 µM (inactive) with TK-10, 55.7 µM (inactive) with SK-OV-3 and 20.9 µM (inactive) in the test on RXF 393.

`CCCCCCCC(=O)OC(CBr)COC(=O)C(C)(C)C` (stereo not drawn): the GI50 in the test on NCI-H226 is > 100 µM (inactive); in the test on SN12C, > 100 µM (inactive); in the test on OVCAR-4, > 95.1 µM (inactive); in the test with UO-31, > 100 µM (inactive); with MOLT-4 it was 28.9 µM (inactive); with CCRF-CEM, 33 µM (inactive). The GI50 is > 100 µM (inactive) in the test on UACC-62; 12.1 µM (inactive) in the test on SNB-75; 32.5 µM (inactive) with K562; > 100 µM (inactive) in the test with CAKI-1; > 100 µM (inactive) in the test with NCI-H23; > 63.4 µM (inactive) in the test with HCT-116. Moreover, the GI50 with A549 is > 100 µM (inactive); in the test on HCT-15, over 100 µM; in the test on Malme-3M it was > 100 µM (inactive); in the test with TK-10, > 100 µM (inactive); in the test with NCI-H522, > 100 µM (inactive); in the test on SK-OV-3 it was > 100 µM (inactive). Moreover, the GI50 with RXF 393 is > 100 µM (inactive).

With `CCOc1ccc(/C=N/[N+](C)(C)C)cc1OCC`, the GI50 in the test on SN12C, with OVCAR-4, with MOLT-4, with CCRF-CEM, with UACC-62 and with T47D was > 10 µM (inactive) each time. For the same compound, the GI50 in the test on SNB-75, with K562, in the test on CAKI-1, in the test on NCI-H23, in the test on HCT-116 and in the test on A549 was > 10 µM (inactive) each time. The GI50 was over 10 µM with HCT-15; > 10 µM (inactive) in the test on Malme-3M; > 10 µM (inactive) in the test with TK-10; > 10 µM (inactive) in the test on NCI-H522; > 10 µM (inactive) in the test with SK-OV-3.

With `O=C1C=C(Br)C(=O)C(Br)=C1`, the GI50 in the test with NCI-H226 was > 100 µM (inactive); in the test with SN12C, > 59.6 µM (inactive); in the test with OVCAR-4 it was > 100 µM (inactive); in the test with UO-31 it was > 100 µM (inactive); with MOLT-4 it was 33.7 µM (inactive); in the test with CCRF-CEM, > 50.1 µM (inactive). Moreover, the GI50 in the test on UACC-62 was > 100 µM (inactive); with SNB-75, > 100 µM (inactive); with K562, 33.3 µM (inactive); with CAKI-1, > 100 µM (inactive); with NCI-H23, > 100 µM (inactive); with HCT-116, > 84.9 µM (inactive). Also, the GI50 in the test on A549 is > 100 µM (inactive); in the test with HCT-15, over 79.8 µM; in the test with Malme-3M, > 100 µM (inactive); with TK-10 it was > 100 µM (inactive); with NCI-H522, 67.5 µM (inactive); with SK-OV-3, > 100 µM (inactive). Besides, the GI50 in the test with RXF 393 was > 100 µM (inactive).

`COC(=O)[C@@]12CCCC(=O)[C@@H]1[C@H]1CCCC[C@H]12`: the GI50 with NCI-H226 is > 100 µM (inactive); in the test on SN12C, > 100 µM (inactive); in the test with OVCAR-4, > 100 µM (inactive); in the test on UO-31, > 100 µM (inactive); in the test with MOLT-4, 30.6 µM (inactive); with CCRF-CEM, 59.2 µM (inactive). Also, the GI50 with UACC-62 was > 100 µM (inactive); in the test on SNB-75 it was > 100 µM (inactive); with K562, 35.8 µM (inactive); in the test with CAKI-1, > 100 µM (inactive); with NCI-H23, > 100 µM (inactive); with HCT-116, > 100 µM (inactive). Moreover, the GI50 was > 100 µM (inactive) in the test on A549; over 100 µM in the test with HCT-15; > 100 µM (inactive) with Malme-3M; > 100 µM (inactive) with TK-10; > 100 µM (inactive) in the test on NCI-H522; > 100 µM (inactive) with SK-OV-3. The GI50 with RXF 393 is > 100 µM (inactive).

For the compound `CCOC(=O)c1[nH]c(COC(C)=O)c2c1CCCCCCCCCC2`, the GI50 in the test with NCI-H226, with SN12C, with OVCAR-4, in the test on UO-31, in the test with MOLT-4 and in the test with CCRF-CEM was > 100 µM (inactive) each time. The GI50 in the test on UACC-62, in the test with SNB-75, in the test with K562, in the test on CAKI-1, with NCI-H23 and in the test with HCT-116 was > 100 µM (inactive) in each case. The GI50 is > 100 µM (inactive) in the test on A549; over 100 µM in the test with HCT-15; > 100 µM (inactive) in the test on Malme-3M; > 100 µM (inactive) with TK-10; > 100 µM (inactive) with NCI-H522; > 100 µM (inactive) in the test with SK-OV-3. Moreover, the GI50 in the test with RXF 393 was > 100 µM (inactive).
